This is an account of results in PMC10269926, “The LiaFSR-LiaX System Mediates Resistance of Enterococcus faecium to Peptide Antibiotics and to Aureocin A53- and Enterocin L50-Like Bacteriocins” (Microbiology Spectrum, 2023).

Where no end group is shown, it is not given here.

Usually MIC50 stands for the lowest concentration that inhibits either 50% of growth or 50% of the strains tested, depending on the study.

For assay [1], the system named is E. faecium MUT_149 (ΔliaFSR ΔliaX pGh:PptcB:liaR). As to the kind of experiment: MIC50, microtiter plates with serial 2-fold dilutions. It is filed as cell-based, Enterococcus faecium. Conditions: microtiter 2-fold dilutions, at least 50% growth reduction, CM17 + 5 μg/mL Em, mean of three biological replicates. The procedure: (§1) The sensitivity of the mutants to AurA53- and EntL50-like bacteriocins, nisin, RAM, GRA, carbenicillin, and chlortetracycline was determined using microtiter plates with serial 2-fold dilutions of the antimicrobials, as described previously ([41]). The lowest concentration of the agent reducing visible bacterial growth by at least 50% was taken as the MIC (MIC50) value. The sensitivity to other antibiotics was determined using agar plates with antibiotic strips as described previously ([12]). The antibiotic concentration at the point where the inhibition zone intersected the strip was taken as the MIC value. The antibiotic susceptibilities of E. faecium LMGT 2783, MUT_130 to MUT_132, MUT_136 to MUT_139, and MUT_140 and MUT_141 were tested in ISO-BHI medium (Oxoid) supplemented with 5 μg/mL Em when appropriate, while those of E. faecium MUT_142 to MUT_149 were tested in CM17 medium supplemented with 5 μg/mL Em. To study the effects of NaCl and sodium dodecyl sulfate (SDS) on bacterial growth, saturated overnight cultures of E. faecium were used for inoculation at a dilution of 1:100 in BHI medium with serial dilutions of these compounds at concentrations of 0.5 to 10% (wt/vol) and 3.0 × 10^−2 to 2.5 × 10^−3% (wt/vol), respectively. Bacterial cultures were incubated at 37°C without shaking for 24 h in a Bioscreen turbidometric automated analyzer (Bioscreen C, Growth Curves Ltd., Finland) in Honeycomb 100-well plates (Oy Growth Curves Ab Ltd.). […] The assays were made at least in triplicate.

Assay [2] has as its system E. faecium LMGT 2783 (WT). Described as above. The class given is cell-based, Enterococcus faecium. Conditions: lowest concentration reducing visible growth by at least 50%, ISO-BHI medium, mean of three biological replicates. The procedure: as §1
In assay [3] the test system is E. faecium MUT_150 (ΔliaFSR ΔliaX pGh:PptcB:liaSR). The description is as above. The class given is cell-based, Enterococcus faecium. The conditions noted are these: microtiter 2-fold dilutions, at least 50% growth reduction, CM17 + 5 μg/mL Em, mean of three biological replicates. The procedure:
as §1

The test system of assay [4] is E. faecium MUT_147 (ΔliaFSR ΔliaX pGhost9 empty vector). Described as above. The class given is cell-based, Enterococcus faecium. Conditions: microtiter 2-fold dilutions, at least 50% growth reduction, CM17 + 5 μg/mL Em, mean of three biological replicates. The procedure: as §1
The test system of assay [5] is E. faecium MUT_145 (ΔliaFSR pGh:PptcB:liaR). Described as above. The class given is cell-based, Enterococcus faecium. Conditions: microtiter 2-fold dilutions, at least 50% growth reduction, CM17 + 5 μg/mL Em, mean of three biological replicates. How it is done:
as §1

In assay [6] the test system is E. faecium MUT_146 (ΔliaFSR pGh:PptcB:liaSR). Described as above. It is filed as cell-based, Enterococcus faecium. Conditions: microtiter 2-fold dilutions, at least 50% growth reduction, CM17 + 5 μg/mL Em, mean of three biological replicates. The procedure: as §1
The test system of assay [7] is E. faecium MUT_148 (ΔliaFSR ΔliaX pGh:PptcB:liaS). The assay is described as above. The class given is cell-based, Enterococcus faecium. Conditions: microtiter 2-fold dilutions, at least 50% growth reduction, CM17 + 5 μg/mL Em, mean of three biological replicates. How it is done:
as §1

Assay [8] concerns E. faecium MUT_144 (ΔliaFSR pGh:PptcB:liaS). The assay is described as above. Conditions: microtiter 2-fold dilutions, at least 50% growth reduction, CM17 + 5 μg/mL Em, mean of three biological replicates. It is filed as cell-based, Enterococcus faecium. How it is done: as §1
Assay [9] has as its system E. faecium MUT_143 (ΔliaFSR pGhost9 empty vector). Described as above. Conditions: microtiter 2-fold dilutions, at least 50% growth reduction, CM17 + 5 μg/mL Em, mean of three biological replicates. The class given is cell-based, Enterococcus faecium. How it is done:
as §1

In assay [10] the test system is E. faecium MUT_140 (liaFSR deletion) and MUT_141 (liaFSR plus liaX deletion). As to the kind of experiment: Susceptibility of deletion strains as a group (microtiter MIC50 or antibiotic strips). The class given is cell-based, Enterococcus faecium. Conditions: for Effect of the deletions on sensitivity (in words): both deletion strains MUT_140 and MUT_141 compared with WT. How it is done: as §1

The test system of assay [11] is spontaneous E. faecium BHT-B-resistant mutants. Conditions: four mutants MUT_132, MUT_136, MUT_137, MUT_138, span over the mutants. How it is done:
Spontaneous resistant mutants were obtained by growing E. faecium LMGT 2783 in the presence of the bacteriocin as described previously ([41]). […] The stability of changes in BHT-B sensitivity was determined by continuously subculturing mutants in BHI broth without bacteriocin. Subcultures were formed at 24-h intervals, and sensitivity to BHT-B was validated after 1, 5, and 10 passages with simultaneous control of culture purity.
as §1

In the case of enterocin L50 [EntL50], the MIC50 in assay [1] was 3.2 µg/mL; in assay [2], 1.6 µg/mL; in [3], 3.2 µg/mL; in [4] it was 0.4 µg/mL; in assay [5], 1.6 µg/mL; in [6], 1.6 µg/mL. Further, the MIC50 in [7], in [8] and in assay [9] was 0.4 µg/mL throughout.

For “nisin (ITSISLCTPGCKTGALMGCNMKTATCHCSIHVSK; not fully specified (some residues, bridges); cysteine pairing not given here; also: lantibiotic; UniProt P13068 24-57, looked up)”, the “Fold increase in sensitivity relative to WT” value in assay [10] (both deletion strains MUT_140 and MUT_141) is on record as 16 fold. The MIC50 turned out to be 16 µg/mL in assay [1]; 125 µg/mL in assay [2]; 16 µg/mL in assay [3]; 8 µg/mL in [4]; 16 µg/mL in [5]; 16 µg/mL in [6]. Besides, the MIC50 in assay [7], in [8] and in assay [9] was 8 µg/mL throughout. For the same substance, the “Fold-lower sensitivity than that of WT E. faecium” value in [11] was “no more than 4 fold”.

On to salivaricin C [SalC], for which the MIC50 amounted to 50 µg/mL in assay [1]; 25 µg/mL in assay [2]; 50 µg/mL in assay [3]; 12.5 µg/mL in [4]; 50 µg/mL in assay [5]; 50 µg/mL in assay [6]. Further, the MIC50 in assay [7], in assay [8] and in assay [9] was 12.5 µg/mL each time. The “Fold-lower sensitivity than that of WT E. faecium” value in assay [11] is listed as “no more than 4 fold”.

On to weissellicin M [WelM], for which, in [10], the “Effect of the deletions on sensitivity (in words)” value (“Effect of the deletions” for short) was “unaffected”. Also, the MIC50 in [1] was 50 µg/mL; in assay [2], 6.3 µg/mL; in assay [3] it was 50 µg/mL; in [4] it was 6.3 µg/mL; in [5], 25 µg/mL; in [6], 25 µg/mL. Further, the MIC50 in [7], in assay [8] and in [9] was 6.3 µg/mL in each case.

Take ramoplanin: the “Effect of the deletions” value in assay [10] is “unaffected”. The MIC50 in assay [1] stood at 0.6 µg/mL; in assay [2], 0.4 µg/mL; in [3] it was 0.6 µg/mL; in assay [4], 0.3 µg/mL; in assay [5], 0.3 µg/mL; in [6], 0.3 µg/mL. The MIC50 in [7], in [8] and in assay [9] was 0.3 µg/mL throughout.

In the case of enterocin 7 [Ent7], the MIC50 came out at 1.6 µg/mL in assay [1]; 1.6 µg/mL in assay [2]; 1.6 µg/mL in assay [3]; 0.4 µg/mL in [4]; 1.6 µg/mL in [5]; 1.6 µg/mL in [6]. Moreover, the MIC50 in [7], in assay [8] and in assay [9] was 0.4 µg/mL in each case.

For the substance gramicidin, the “Effect of the deletions” value in assay [10] is “unaffected”. Besides, the MIC50 in assay [1] turned out to be 0.047 µg/mL; in assay [2], 0.006 µg/mL; in assay [3] it was 0.047 µg/mL; in assay [4], 0.006 µg/mL; in assay [5] it was 0.047 µg/mL; in assay [6], 0.047 µg/mL. For the same substance, the MIC50 in assay [7], in assay [8] and in assay [9] was 0.006 µg/mL in each case.
